Active and inactive are the calls of the source. The rule behind the calls is not given here.
Columns and labels:
[1] = Acute neurotoxicity in albino Swiss mouse pretreated for 2 hrs by rotorod test; assay type: toxicity, organism-based; details: in vivo
[2] = organism: Mus musculus; assay: Anticonvulsant activity in albino Swiss mouse by maximal electroshock seizure test; assay type: functional
[3] = tested on: Mus musculus; assay: Anticonvulsant activity in albino Swiss mouse measured after 30 mins by subcutaneous pentylenetetrazole seizure test; assay type: functional; details: sc, 0.5 h
[4] = tested on: Mus musculus; assay: Anticonvulsant activity against albino Swiss mouse seizure model assessed as time to peak effect at 100 mg/kg, ip; assay type: functional
[5] = tested on: Mus musculus; assay: Anticonvulsant activity in albino Swiss mouse assessed as protection against maximal electroshock-induced seizures pretreated for 2 hrs at 100 mg/kg, ip by maximal electroshock seizure test; assay type: functional, organism-based
[6] = tested on: Mus musculus; assay: Anticonvulsant activity in albino Swiss mouse assessed as protection against maximal electroshock-induced seizures pretreated for 0.5 hrs at 100 mg/kg, ip by maximal electroshock seizure test; assay type: functional
[7] = organism: Rattus norvegicus; assay: Displacement of [125I]omega-Conotoxin GVIA from N-type calcium channel in rat cerebral cortex synaptoneurosomes at 100 uM measured after 30 mins by scintillation counting method; assay type: tissue-based
[8] = organism: Rattus norvegicus; assay: Displacement of [125I]omega-Conotoxin GVIA from N-type calcium channel in rat cerebral cortex synaptoneurosomes at 200 uM measured after 30 mins by scintillation counting method; assay type: tissue-based
[9] = organism: Rattus norvegicus; assay: Displacement of [3H]Batrachotoxinin from voltage-sensitive sodium channel site 2 in rat cerebral cortex synaptoneurosomes at 500 uM measured after 60 mins by scintillation counting method; assay type: tissue-based
[10] = organism: Rattus norvegicus; assay: Displacement of [3H]diltiazem from L-type calcium channel diltiazem binding site in rat cerebral cortex synaptoneurosomes at 100 uM measured after 120 mins by scintillation counting method; assay type: tissue-based
[11] = organism: Rattus norvegicus; assay: Displacement of [3H]D888 from L-type calcium channel verapamil binding site in rat cerebral cortex synaptoneurosomes at 200 uM measured after 120 mins by scintillation counting method; assay type: tissue-based
[12] = organism: Rattus norvegicus; assay: Displacement of [3H]D888 from L-type calcium channel verapamil binding site in rat cerebral cortex synaptoneurosomes at 100 uM measured after 120 mins by scintillation counting method; assay type: tissue-based
[13] = organism: Rattus norvegicus; assay: Displacement of [3H]diltiazem from L-type calcium channel diltiazem binding site in rat cerebral cortex synaptoneurosomes at 200 uM measured after 120 mins by scintillation counting method; assay type: tissue-based
[14] = organism: Rattus norvegicus; assay: Displacement of [3H]nitrendipine from L-type calcium channel dihydropyridine site in rat cerebral cortex synaptoneurosomes at 100 uM measured after 90 mins by scintillation counting method; assay type: tissue-based
[15] = organism: Rattus norvegicus; assay: Displacement of [3H]nitrendipine from L-type calcium channel dihydropyridine site in rat cerebral cortex synaptoneurosomes at 200 uM measured after 90 mins by scintillation counting method; assay type: tissue-based
[16] = Protective index, ratio of TD50 for acute neurotoxicity in albino Swiss mouse to ED50 for anticonvulsant activity in albino Swiss mouse by maximal electroshock seizure test; assay type: toxicity, organism-based; details: in vivo, read-out: Ratio TD50/ED50
[17] = tested on: Mus musculus; assay: Anticonvulsant activity in albino Swiss mouse assessed as reduction in clonic seizures pretreated for 2 hrs at 100 mg/kg, ip measured after 30 mins by subcutaneous pentylenetetrazole seizure test; assay type: functional, organism-based
[18] = tested on: Mus musculus; assay: Acute neurotoxicity in albino Swiss mouse pretreated for 2 hrs at 100 mg/kg, ip by rotorod test; assay type: toxicity, organism-based; details: in vivo
[19] = tested on: Mus musculus; assay: Acute neurotoxicity in albino Swiss mouse pretreated for 0.5 hrs at 100 mg/kg, ip by rotorod test; assay type: toxicity, organism-based; details: in vivo
[20] = Protective index, ratio of TD50 for acute neurotoxicity in albino Swiss mouse to ED50 for anticonvulsant activity in albino Swiss mouse by 6Hz psychomotor seizure test; assay type: toxicity, organism-based; details: in vivo, read-out: Ratio TD50/ED50
[21] = tested on: Mus musculus; assay: Anticonvulsant activity in albino Swiss mouse assessed as reduction in clonic seizures pretreated for 0.5 hrs at 100 mg/kg, ip measured after 30 mins by subcutaneous pentylenetetrazole seizure test; assay type: functional; parameters: scale not given: the % may be the effect or the level left
[22] = Protective index, ratio of TD50 for acute neurotoxicity in albino Swiss mouse to ED50 for anticonvulsant activity in albino Swiss mouse by subcutaneous pentylenetetrazole seizure test; assay type: toxicity, organism-based; details: in vivo, read-out: Ratio TD50/ED50
[23] = tested on: Mus musculus; assay: Anticonvulsant activity in albino Swiss mouse assessed as protection against electrically-induced seizure pretreated for 0.5 hrs at 100 mg/kg, ip by 6Hz psychomotor seizure test; assay type: functional
[24] = organism: Mus musculus; assay: Anticonvulsant activity in albino Swiss mouse assessed as protection against electrically-induced seizure by 6Hz psychomotor seizure test; assay type: functional
[25] = tested on: Mus musculus; assay: Anticonvulsant activity in albino Swiss mouse assessed as protection against electrically-induced seizure pretreated for 2 hrs at 100 mg/kg, ip by 6Hz psychomotor seizure test; assay type: functional, organism-based

Compound `CC[C@@H](C(N)=O)N1CCCC1=O` has a TD50 at 2 h [1] greater than 500 mg/kg, an ED50 [2] greater than 500 mg/kg and an ED50 [3] greater than 500 mg/kg. The Time [4] was 1 h.
With `CC1CC(=O)N(C(C)C(=O)Nc2cccc(F)c2)C1=O` (stereo not given) the Activity [5] was “inactive”.
For `CCC(C(=O)Nc1ccc(Cl)cc1)N1C(=O)CCC1=O` (stereo not given), the Activity [5] was “inactive” and the Activity [6] was “inactive”.
For `CC(C(=O)Nc1ccc(Cl)cc1)N1C(=O)CCC1=O` (stereo not given), the Activity [6] was “inactive”.
With `CCC(C(=O)Nc1ccc(F)cc1)N1C(=O)CCC1=O` (stereo not given) the Activity [5] was “inactive” and the Activity [6] was “inactive”.
Compound `NC(=O)N1c2ccccc2C=Cc2ccccc21` has an inhibition [7] of -2.9%, an inhibition [8] of 1.9% and an inhibition [9] of 33.6%. The inhibition [10] was 1.1%, the inhibition [11] was 7.5% and the inhibition [12] was 8.8%. For the same compound, the inhibition [13] was 7.3%, the inhibition [14] was 2.6% and the inhibition [15] was 3.6%.
For `CC1CC(=O)N(C(C)C(=O)Nc2cccc(Cl)c2)C1=O` (stereo not given), the TD50 at 2 h [1] was 279 mg/kg, the selectivity ratio [16] was 3.5 and the Activity [17] was “inactive”. For the same compound, the Activity [18] was “Non-toxic”, the Activity [19] was “Non-toxic” and the selectivity ratio [20] was 3.2. The Activity [6] was 75%, the ED50 [2] was 80.6 mg/kg and the Activity [21] was 75%. For the same compound, the ED50 [3] was 58.4 mg/kg, the Time [4] was 0.5 h and the selectivity ratio [22] was 4.8. The Activity [23] was 75% and the ED50 [24] was 88.2 mg/kg.
For `CC1CC(=O)N(C(C)C(=O)Nc2ccc(Cl)cc2)C1=O` (stereo not given), the Activity [5] was “inactive”.
In the case of `CC(C(=O)Nc1cccc(C(F)(F)F)c1)N1C(=O)CCC1=O` (stereo not given), the Activity [6] is reported as “inactive”.
With `CC(C(=O)Nc1ccc(F)cc1)N1C(=O)CCC1=O` (stereo not given) the Activity [5] was “inactive” and the Activity [6] was “inactive”.
With `CCC(C(=O)Nc1cccc(Cl)c1)N1C(=O)CCC1=O` (stereo not given) the Activity [25] was “inactive”, the TD50 at 2 h [1] was greater than 500 mg/kg and the Activity [18] was “Non-toxic”. For the same compound, the selectivity ratio [20] was greater than 11.5, the Activity [5] was “inactive” and the Activity [6] was 75%. It also gave an ED50 [2] greater than 130 mg/kg, an Activity [21] of 50% and an ED50 [3] greater than 130 mg/kg. The Time [4] was 0.5 h, the Activity [23] was 75% and the ED50 [24] was 43.4 mg/kg.
With `CCC(C(=O)Nc1ccccc1)N1C(=O)CCC1=O` (stereo not given) the Activity [25] was “inactive”, the TD50 at 2 h [1] was 398 mg/kg and the selectivity ratio [16] was 3.4. The Activity [17] was “inactive”, the Activity [18] was “Non-toxic” and the Activity [19] was “Non-toxic”. For the same compound, the selectivity ratio [20] was 5.7, the Activity [6] was 75% and the ED50 [2] was 116 mg/kg. The Activity [21] was 75%, the ED50 [3] was 75.4 mg/kg and the Time [4] was 0.5 h. For the same compound, the selectivity ratio [22] was 5.3, the Activity [23] was “Active” and the ED50 [24] was 69.3 mg/kg.
With `CC(C(=O)Nc1cccc(F)c1)N1C(=O)CCC1=O` (stereo not given) the Activity [5] was “inactive”.
